Data set [1] is classed as in vitro ADME. Particulars: mouse liver microsomes, without NADPH (data not shown). For orientation: Liver microsomes are a subcellular fraction often used to study metabolism.
The subject of the next data set is G-CSF production. In words: In vivo G-CSF stimulation assay. Also on record: species or system mouse. Particulars: CD2F1 mice, 200 mg/Kg subcutaneously; for G-CSF production in mice after treatment: plasma G-CSF 8-48 h.
Data set [2] is described as follows: In vivo PK study, single subcutaneous dose in CD2F1 mice. Particulars: male, CD2F1, mouse, sc, 200 mg/kg.

With `[2H]C([2H])([2H])C(=CCC/C(C)=C/CC/C(C)=C/CC[C@]1(C)CCc2cc(O)cc(C)c2O1)C([2H])([2H])[2H]` [d6-DT3, (R)-2-((3E,7E)-4,8-dimethyl-12-(methyl-d3)trideca-3,7,11-trien-1-yl-13,13,13-d3)-2,8-dimethylchroman-6-ol], the “degradation in the absence of NADPH” value in data set [1] is recorded as “no degradation was observed”. Further, in the data set with G-CSF production, the “lag time before plasma G-CSF increase” value is “about 6 h”, the “time of peak plasma G-CSF concentration” value is on record as 24 h and the “G-CSF production in mice after treatment” value is recorded as “significant G-CSF production”.

Regarding `CC(C)=CCC/C(C)=C/CC/C(C)=C/CC[C@]1(C)CCc2cc(O)cc(C)c2O1` [DT3, δ-tocotrienol], in data set [1], the “degradation in the absence of NADPH” value is reported as “no degradation was observed”. In data set [2], the Tmax (usually the time from dosing to the highest level) was around 1 h and the Tmax at 24 h was 1 h. Besides, in the data set with G-CSF production, the “lag time before plasma G-CSF increase” value is reported as “about 6 h”, the “time of peak plasma G-CSF concentration” value was found to be 24 h and the “G-CSF production in mice after treatment” value was “significant G-CSF production”.

Source of the values: article PMC7433030 (Bioorganic & medicinal chemistry, 2020).
